Read-outs that look alike come from different tables or passages of the source.
Assays:
JARID1B (KDM5B) = JARID1B (KDM5B) (Homo sapiens, UniProt Q9UGL1); experiment: AlphaScreen histone demethylase assay; type: biochemical
OGFOD1 = target: T1, OGFOD1 (Homo sapiens, UniProt Q8N543); experiment: MALDI-TOF MS OGFOD1 hydroxylation assay; type: biochemical
T1 construct: made in house
T1 sequence (Q8N543 1-542): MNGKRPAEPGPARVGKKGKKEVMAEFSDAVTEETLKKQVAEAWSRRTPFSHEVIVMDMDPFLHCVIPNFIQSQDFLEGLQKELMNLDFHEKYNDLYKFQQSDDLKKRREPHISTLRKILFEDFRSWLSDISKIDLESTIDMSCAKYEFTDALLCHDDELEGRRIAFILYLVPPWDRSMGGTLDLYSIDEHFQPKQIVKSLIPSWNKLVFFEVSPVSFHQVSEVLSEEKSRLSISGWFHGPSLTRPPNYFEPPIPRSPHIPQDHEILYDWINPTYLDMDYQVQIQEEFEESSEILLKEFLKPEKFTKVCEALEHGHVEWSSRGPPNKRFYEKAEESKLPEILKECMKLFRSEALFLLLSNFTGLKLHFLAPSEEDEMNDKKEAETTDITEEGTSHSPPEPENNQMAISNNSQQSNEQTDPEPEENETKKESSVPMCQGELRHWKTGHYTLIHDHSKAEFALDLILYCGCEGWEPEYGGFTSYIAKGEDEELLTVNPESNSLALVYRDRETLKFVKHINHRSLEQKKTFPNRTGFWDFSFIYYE
Method: MALDI-TOF MS OGFOD1 hydroxylation assays
Recombinant human OGFOD1 was prepared as reported,11 and stored at -80 °C in 50 mM HEPES (pH 7.5), 150 mM NaCl, 1 mM DTT and 5% (w/v) glycerol after purification with immobilized metal affinity chromatography. Activity assays were performed by determining the extent of hydroxylation of a 20-residue fragment of human RPS23 containing amino acid […]
residues 51-70 (H2N-[…]-CONH2) by matrix-assisted laser desorption/ionisation time-of-flight mass spectrometry (MALDI-TOF MS) using a Waters® Micromass® MALDI micro MX™ mass spectrometer and MassLynx™ 4.1 as described 12.
The optimised hydroxylation assay involved incubation of OGFOD1 (1 μM) with inhibitor (1 % v/v in DMSO) in the presence of Fe(II) (50 μM), 2OG (25 μM), L-ascorbic acid (100 μM) and RPS2351-70 (25 μM) in HEPES (50 mM, pH 7.5) at 37 °C for 15 min. Reagent solution were made as previously reported. (64) Reactions were quenched with formic acid (1 % v/v).
Samples were prepared by mixing reaction mixture (1 μL) with α-cyano-4-hydrocinnamic acid (CHCA) solution (water:acetonitrile 1:1) (1 μL). Dose-response was assessed in 8-point triplicates. Data were analysed using GraphPad Prism 5.04. […]
Fig. S12. In vitro OGFOD1 selectivity profiling of PHD inhibitors. Inhibition of PHD inhibitors against human OGFOD1 as assayed by MALDI11,13 -TOF MS (the protocol is described in the Supplemental Materials and Methods section). No enzyme and DMSO controls were used for the normalisation of RPS23 peptide hydroxylation. Eight concentrations were used to obtained dose-response curve for each compound. Data points presented in the graph are means with standard deviation, n=3. IC50 values (listed in Table 2) were calculated using GraphPad […]
(1 picture or pasted object on this page, not shown here)

JARID1C (KDM5C) = JARID1C (KDM5C) (Homo sapiens, UniProt P41229); experiment: AlphaScreen histone demethylase assay; type: biochemical
Ofd1 = target: T2, Ofd1 (Schizosaccharomyces pombe, UniProt Q11120); experiment: MALDI-TOF MS Ofd1 hydroxylation assay; type: biochemical
T2 construct: His6 (N); made in house; host or cells: E. coli BL21(DE3)
T2 sequence (Q11120 1-515): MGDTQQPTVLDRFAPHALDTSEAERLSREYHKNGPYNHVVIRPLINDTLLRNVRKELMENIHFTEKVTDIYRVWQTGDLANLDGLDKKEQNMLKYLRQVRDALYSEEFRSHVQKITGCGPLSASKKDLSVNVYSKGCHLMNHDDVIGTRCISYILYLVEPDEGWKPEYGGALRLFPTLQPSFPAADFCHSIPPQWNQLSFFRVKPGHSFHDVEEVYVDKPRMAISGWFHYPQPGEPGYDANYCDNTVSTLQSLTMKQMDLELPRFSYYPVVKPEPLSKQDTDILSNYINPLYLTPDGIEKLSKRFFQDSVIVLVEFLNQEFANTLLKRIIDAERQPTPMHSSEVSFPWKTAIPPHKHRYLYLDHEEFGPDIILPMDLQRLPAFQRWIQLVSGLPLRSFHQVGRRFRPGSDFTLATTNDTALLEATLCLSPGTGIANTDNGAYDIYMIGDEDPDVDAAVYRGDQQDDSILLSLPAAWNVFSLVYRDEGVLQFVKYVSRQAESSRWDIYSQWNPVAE

[1] = tested on: HIF-1α and HIF-2α in Hep3b cells; experiment: Immunoblotting of HIF-α stabilization in Hep3b cells; type: cell-based, human
Method: We then investigated potential time dependent effects of the inhibitors on HIF-α stabilization in Hep3b cells (Fig. 5A). […]
Cell Culture and Immunoblotting
HeLa and RCC4 cells were cultured in Dulbecco’s Modified Eagle’s Medium (DMEM; Sigma Aldrich D6546-500ML) supplemented with 10% fetal bovine serum (Sigma Aldrich F7524-500ML), 4 mM L-glutamine (Sigma Aldrich G7513- 100ML), 50 U/mL penicillin, and 50 μg/mL streptomycin (Sigma Aldrich P0781-100ML). Cells were seeded to reach 90-100% confluency prior to compound treatment. Cells were exposed to the inhibitor at a final concentration of 1% DMSO for 5-6 hours. For Fe(II) titration in the presence of inhibitors, […]
Cells were harvested in urea/SDS buffer (6.7 M urea, 10 mM Tris-Cl pH 6.8, 10% glycerol, and1% SDS) supplemented with 1mM dithiothreitol following a phosphate-buffered saline (PBS) rinse. Cell extracts were analyzed with SDS-PAGE, electroblotted to polyvinylidene difluoride (PVDF) membrane (Millipore) and probed with the corresponding primary antibody for 1 hour at room temperature or overnight at 4 °C. The secondary antibody specific to primary antibody species conjugated with HRP were applied at room temperature for 1 hour.
Millipore), anti-HIF-1α Hyp564 (D43B5, Cell Signaling), anti-HIF-1α HyN803 (a generous […]
Abcam). Details of antibodies used are given in Tian et al.17 Detection of signal was achieved […]
unless otherwise stated) either with film or ChemiDoc MP (BIO-RAD) imaging system. TM Quantification of the immunobloting signal was performed with Image Lab software from […]

[2] = isolated recombinant enzyme, 1 μM, read-out: IC50 OGFOD1
[3] = isolated recombinant enzyme, 1 μM, read-out: IC50 Ofd1

JARID1B (KDM5B), sequence (Q9UGL1 whole entry): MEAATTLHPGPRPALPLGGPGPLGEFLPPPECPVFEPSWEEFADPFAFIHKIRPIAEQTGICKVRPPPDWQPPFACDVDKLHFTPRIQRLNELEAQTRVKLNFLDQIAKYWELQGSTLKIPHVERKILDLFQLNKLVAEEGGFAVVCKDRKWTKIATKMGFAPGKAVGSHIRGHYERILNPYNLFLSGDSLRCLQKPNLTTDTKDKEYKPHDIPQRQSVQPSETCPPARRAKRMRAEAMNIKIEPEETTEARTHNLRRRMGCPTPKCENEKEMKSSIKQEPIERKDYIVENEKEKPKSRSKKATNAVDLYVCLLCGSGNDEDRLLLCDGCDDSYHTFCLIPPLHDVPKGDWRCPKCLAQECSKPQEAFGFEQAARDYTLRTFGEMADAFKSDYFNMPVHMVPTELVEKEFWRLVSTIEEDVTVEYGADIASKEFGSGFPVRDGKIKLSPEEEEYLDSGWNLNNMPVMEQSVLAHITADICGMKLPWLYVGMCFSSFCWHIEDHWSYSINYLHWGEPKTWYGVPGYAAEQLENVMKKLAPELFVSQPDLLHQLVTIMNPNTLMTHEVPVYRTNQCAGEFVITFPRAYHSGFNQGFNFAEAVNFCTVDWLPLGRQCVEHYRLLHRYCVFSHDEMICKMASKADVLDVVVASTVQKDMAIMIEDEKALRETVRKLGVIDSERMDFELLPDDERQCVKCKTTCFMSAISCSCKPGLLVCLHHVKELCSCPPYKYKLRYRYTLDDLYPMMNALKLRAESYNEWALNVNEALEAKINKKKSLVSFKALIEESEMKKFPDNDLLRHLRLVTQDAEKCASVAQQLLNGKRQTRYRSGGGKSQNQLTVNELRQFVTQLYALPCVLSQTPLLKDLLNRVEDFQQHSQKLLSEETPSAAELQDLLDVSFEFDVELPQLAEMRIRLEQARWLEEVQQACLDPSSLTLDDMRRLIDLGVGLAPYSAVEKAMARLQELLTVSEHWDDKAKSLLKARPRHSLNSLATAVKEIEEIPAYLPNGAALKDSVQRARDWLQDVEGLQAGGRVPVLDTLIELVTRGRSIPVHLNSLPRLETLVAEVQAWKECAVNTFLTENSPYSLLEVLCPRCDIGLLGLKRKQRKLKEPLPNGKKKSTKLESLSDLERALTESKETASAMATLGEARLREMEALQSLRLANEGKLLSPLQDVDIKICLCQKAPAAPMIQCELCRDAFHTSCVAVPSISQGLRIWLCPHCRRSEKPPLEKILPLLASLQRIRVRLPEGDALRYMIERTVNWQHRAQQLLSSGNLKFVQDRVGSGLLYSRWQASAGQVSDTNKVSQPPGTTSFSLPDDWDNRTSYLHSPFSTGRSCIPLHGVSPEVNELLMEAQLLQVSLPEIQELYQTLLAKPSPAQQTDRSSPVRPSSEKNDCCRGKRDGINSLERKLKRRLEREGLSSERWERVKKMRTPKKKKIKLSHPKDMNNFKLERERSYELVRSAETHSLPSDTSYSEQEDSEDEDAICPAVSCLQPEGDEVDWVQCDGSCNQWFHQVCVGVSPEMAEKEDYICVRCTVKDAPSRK
JARID1C (KDM5C), sequence (P41229 whole entry): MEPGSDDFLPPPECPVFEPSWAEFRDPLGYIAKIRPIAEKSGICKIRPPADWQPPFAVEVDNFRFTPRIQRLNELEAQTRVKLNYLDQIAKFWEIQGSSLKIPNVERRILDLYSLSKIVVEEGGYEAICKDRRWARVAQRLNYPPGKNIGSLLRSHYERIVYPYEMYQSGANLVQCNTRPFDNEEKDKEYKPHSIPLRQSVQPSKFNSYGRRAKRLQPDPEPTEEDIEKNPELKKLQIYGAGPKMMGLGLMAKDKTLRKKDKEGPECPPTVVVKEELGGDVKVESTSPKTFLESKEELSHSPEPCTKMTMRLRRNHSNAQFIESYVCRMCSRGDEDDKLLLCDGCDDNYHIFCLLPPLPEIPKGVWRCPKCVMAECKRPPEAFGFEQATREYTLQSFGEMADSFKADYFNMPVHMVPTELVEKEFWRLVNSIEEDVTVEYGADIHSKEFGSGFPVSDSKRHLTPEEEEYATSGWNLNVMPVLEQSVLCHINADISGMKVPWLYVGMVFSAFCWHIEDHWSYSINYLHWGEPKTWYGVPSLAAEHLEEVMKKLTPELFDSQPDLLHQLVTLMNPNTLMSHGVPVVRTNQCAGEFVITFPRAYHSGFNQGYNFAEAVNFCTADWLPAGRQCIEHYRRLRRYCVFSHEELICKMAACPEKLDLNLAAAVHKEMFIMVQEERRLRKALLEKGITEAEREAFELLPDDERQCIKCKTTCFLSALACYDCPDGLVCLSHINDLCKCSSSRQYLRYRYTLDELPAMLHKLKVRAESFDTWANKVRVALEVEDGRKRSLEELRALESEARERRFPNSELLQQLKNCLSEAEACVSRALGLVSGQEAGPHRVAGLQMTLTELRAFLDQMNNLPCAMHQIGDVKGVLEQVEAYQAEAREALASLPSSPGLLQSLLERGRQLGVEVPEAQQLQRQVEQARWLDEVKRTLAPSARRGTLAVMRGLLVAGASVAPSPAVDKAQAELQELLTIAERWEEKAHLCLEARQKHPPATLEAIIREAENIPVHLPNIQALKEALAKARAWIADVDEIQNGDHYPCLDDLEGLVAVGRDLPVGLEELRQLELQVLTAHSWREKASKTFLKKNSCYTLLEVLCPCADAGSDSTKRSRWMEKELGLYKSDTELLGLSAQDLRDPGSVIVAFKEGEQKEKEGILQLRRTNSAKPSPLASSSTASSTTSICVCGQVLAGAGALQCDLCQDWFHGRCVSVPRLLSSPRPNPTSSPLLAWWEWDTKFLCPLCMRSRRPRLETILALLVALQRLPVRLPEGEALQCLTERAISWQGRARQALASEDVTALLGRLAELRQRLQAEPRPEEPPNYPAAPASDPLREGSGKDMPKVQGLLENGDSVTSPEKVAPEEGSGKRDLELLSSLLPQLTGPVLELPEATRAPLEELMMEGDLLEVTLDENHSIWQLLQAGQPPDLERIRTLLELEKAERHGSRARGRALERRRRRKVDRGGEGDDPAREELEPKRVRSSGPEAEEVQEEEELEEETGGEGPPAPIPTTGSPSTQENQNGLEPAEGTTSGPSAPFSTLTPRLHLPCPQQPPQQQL

Structure (SMILES): Cc1nc(C(=O)NCC(=O)O)c(O)c2ccc(Oc3ccccc3)cc12 [FG-4592]
- IC50 (JARID1B (KDM5B); read-out: IC50 JARID1B (KDM5B)): > 100 µM
- IC50 (OGFOD1; [2]): < 1000 nM
- IC50 (JARID1C (KDM5C); read-out: IC50 JARID1C (KDM5C)): > 100 µM
- IC50 (Ofd1; [3]): 8.5 µM

Structure (SMILES): O=C(O)CNC(=O)c1ncc(-c2cccc(Cl)c2)cc1O [Vadadustat]
- IC50 (JARID1B (KDM5B); read-out: IC50 JARID1B (KDM5B)): 30 µM
- IC50 (OGFOD1; [2]): 1400 nM
- IC50 (JARID1C (KDM5C); read-out: IC50 JARID1C (KDM5C)): > 100 µM
- concentration from which dose-dependent HIF-1α stabilization was clear ([1]; up to 6 hours): ≥ 50 µM

Structure (SMILES): O=c1c(-n2ccnn2)c[nH]n1-c1cc(N2CCOCC2)ncn1 [Molidustat]
- IC50 (JARID1B (KDM5B); read-out: IC50 JARID1B (KDM5B)): > 100 µM
- IC50 (OGFOD1; [2]): 5100 nM
- IC50 (JARID1C (KDM5C); read-out: IC50 JARID1C (KDM5C)): > 100 µM
- IC50 (Ofd1; [3]): 10.3 µM
- time at which HIF-2α level saturated ([1]; 2.5 μM): 1 h
- time at which HIF-1α level saturated ([1]; 10 μM): after the first hour
- time at which HIF-2α level saturated ([1]; 10 μM): after the first hour

Structure (SMILES): O=C(O)CNC(=O)C1C(=O)N(C2CCCCC2)C(=O)N(C2CCCCC2)C1=O [GSK1278863]
- IC50 (JARID1B (KDM5B)): > 100 µM
- IC50 (OGFOD1): 2100 nM
- IC50 (JARID1C (KDM5C)): > 100 µM
- IC50 (Ofd1): 23.9 µM
- time at which HIF-1α level saturated ([1]; 10 μM): 3 h
- time at which HIF-2α level saturated ([1]; 10 μM): 3 h

Structure (SMILES): CC(C)(C)OC(=O)c1ccc(-n2[nH]cc(-n3ccnn3)c2=O)nc1 [IOX4]
- IC50 (JARID1B (KDM5B); read-out: IC50 JARID1B (KDM5B)): 87 µM
- IC50 (OGFOD1; [2]): < 1000 nM
- IC50 (JARID1C (KDM5C); read-out: IC50 JARID1C (KDM5C)): 97 µM
- IC50 (Ofd1): 41.3 µM
- time at which HIF-2α level saturated ([1]; 2.5 μM): 1 h
- time at which HIF-1α level saturated ([1]; 10 μM): 3 to 6 h
- time at which HIF-2α level saturated ([1]; 10 μM): 3 to 10 h

— publication PMC5802278, “Molecular and cellular mechanisms of HIF prolyl hydroxylase inhibitors in clinical trials” (Chemical Science, 2017)
